Test results as given in patent US20090142766A1, “METHODS FOR MEASURING THE METABOLISM OF CNS DERIVED BIOMOLECULES IN VIVO” (Washington University in St. Louis, priority 2007, published 2009).

Tests used:
[1] = Aβ fractional synthesis and clearance rate in CSF (immunoprecipitation-MS/MS after ^13C6-leucine labeling); type: in vivo, human; settings: 6 healthy young participants
Source text: Protein production and clearance are important parameters that are tightly regulated and reflect normal physiology as well as disease states. Previous studies of protein metabolism in humans have focused on whole body or peripheral body proteins, but not on proteins produced in the central nervous system (CNS). No methods were previously available to quantify protein production or clearance rates in the CNS of humans. Such a method would be valuable to assess not only Aβ production or clearance rates in humans but also the metabolism of a variety other proteins relevant to diseases of the CNS. In order to address critical questions about underlying AD pathogenesis and Aβ metabolism, a method for quantifying Aβ fractional synthesis rate (FSR) and fractional clearance rate (FCR) in vivo in the CNS of humans was developed.
For each sample of CSF collected, the ratio of labeled to unlabeled Aβ was determined by immunoprecipitation-MS/MS, as described above. […]
The fractional synthesis rate (FSR) was calculated using the standard formula, presented below: […]
The fractional clearance rate (FCR) was calculated by fitting the slope of the natural logarithm of the clearance portion of the labeled Aβ curve, according to the following formula: […]

[2] = Aβ clearance in cortex of APPswe/PS1deltaE9 double transgenic mice; type: in vivo; settings: cortex, 3, 6 and 18 hr after ^13C6-leucine 200 μg/g i.p.
Method: To measure the brain Aβ clearance rate in mice, the method developed to assess ApoE clearance described above in Example 4 was performed in APPswe/PS1deltaE9 double transgenic mice (line #85; Jackson Labs, Bar Harbor, Me.). After a bolus intraperitioneal injection of ^13C6-leucine (200 μg/g), cortical brain tissue was harvested at 3, 6, and 18 hr post-injection (n=3) and lysed (lysis buffer, 1% Triton with PBS). Aβ was immunoprecipitated with an Aβ monoclonal antibody (HJ5.2, directed to Aβ 13-28) and then analyzed by nano-LC-MS/MS as described above. […] The clearance rate of soluble Aβ from cortex of transgenic mice was very similar with that of Aβ from human CSF as described by Bateman et al. 2006, supra.

[3] = cited from earlier work

## Aβ: endogenous amyloid-beta peptide (SEQ ID NO:1) produced in the CNS from amyloid precursor protein
[1]; 24 to 36 hours
  average fractional clearance rate (FCR): 8.3 %/hr
[1]; slope 6 to 15 hours
  average fractional synthesis rate (FSR): 7.6 %/hr
[2]
  fractional clearance rate (FCR) of soluble cortical Aβ: 7.62±1.25 % per hour
[3]
  t1/2 in brain interstitial fluid: 1 to 2 h
